Consider twelve compounds from patent US12662491B2 (Redona Therapeutics, Inc., priority 2020, dated 2026).

As usually defined, the IC50 is the point on the concentration scale where inhibition reaches its midpoint.

Structures can show the parent of a compound that is named as a salt.

In this experiment the target is T1, Zcchc11 enzyme (Homo sapiens, UniProt Q5TAX3).
T1 construct: made in house; host or cells: HEK293 cells (Zcchc11); E. coli Rosetta II (LIN28A)
T1 sequence (Q5TAX3 212-1420): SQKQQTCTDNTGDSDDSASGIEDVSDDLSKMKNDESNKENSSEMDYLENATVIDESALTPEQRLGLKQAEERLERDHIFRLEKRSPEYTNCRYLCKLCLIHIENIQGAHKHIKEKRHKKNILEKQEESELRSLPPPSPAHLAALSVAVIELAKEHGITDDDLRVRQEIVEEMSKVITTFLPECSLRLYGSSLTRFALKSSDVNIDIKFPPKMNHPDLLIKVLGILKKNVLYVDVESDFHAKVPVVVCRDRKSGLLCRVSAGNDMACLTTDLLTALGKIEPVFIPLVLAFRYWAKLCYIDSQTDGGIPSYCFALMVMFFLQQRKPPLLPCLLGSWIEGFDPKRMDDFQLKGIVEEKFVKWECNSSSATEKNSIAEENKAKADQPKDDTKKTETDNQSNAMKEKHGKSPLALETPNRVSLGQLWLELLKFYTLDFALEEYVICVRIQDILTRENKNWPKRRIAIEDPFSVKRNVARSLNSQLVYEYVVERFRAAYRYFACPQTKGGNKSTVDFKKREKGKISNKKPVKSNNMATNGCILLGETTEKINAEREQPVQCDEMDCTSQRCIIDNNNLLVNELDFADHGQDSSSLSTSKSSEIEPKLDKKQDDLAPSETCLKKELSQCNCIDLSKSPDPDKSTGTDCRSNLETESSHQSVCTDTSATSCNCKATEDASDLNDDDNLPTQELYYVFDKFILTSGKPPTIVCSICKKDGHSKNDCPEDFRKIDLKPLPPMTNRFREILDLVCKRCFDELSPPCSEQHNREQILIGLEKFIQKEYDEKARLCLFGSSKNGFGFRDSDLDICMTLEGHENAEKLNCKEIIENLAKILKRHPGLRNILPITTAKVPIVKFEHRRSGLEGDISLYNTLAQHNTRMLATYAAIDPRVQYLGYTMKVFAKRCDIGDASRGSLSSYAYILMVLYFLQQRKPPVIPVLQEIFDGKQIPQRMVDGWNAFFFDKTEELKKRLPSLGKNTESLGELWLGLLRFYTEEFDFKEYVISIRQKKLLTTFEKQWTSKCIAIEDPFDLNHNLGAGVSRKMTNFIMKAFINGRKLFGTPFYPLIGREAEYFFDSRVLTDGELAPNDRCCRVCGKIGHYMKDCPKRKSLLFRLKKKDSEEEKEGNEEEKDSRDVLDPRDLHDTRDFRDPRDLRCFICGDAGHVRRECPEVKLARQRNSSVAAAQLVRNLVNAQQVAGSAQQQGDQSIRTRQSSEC
The experiment in a line: TUTase assay (Zcchc11 assay, Lin28a-dependent polyuridylation of pre-let-7). Type of experiment: biochemical. Particulars: Lin28a-dependent Zcchc11 (Z11) TUTase activity; read-out: Potency Lin28a-dep Z11 IC50. The protocol:
The purpose of the Zcchc11 assay is to determine compound potency against Zcchc11 enzyme through the measurement of IC50. Compound inhibition is measured as a function of polyuridine tails added to RNA substrates in the presence of active TUTase, UTP, and inhibitor. The Zcchc11 assay was done in a black, non-binding, 384 well plate (Corning #3575). All steps were performed at room temperature. For a typical assay, a 29 ul aliquot of assay buffer (50 mM HEPES pH 7.3, 150 mM KCl, 5 mM MgCl2, 10 mM DTT, 0.01% Triton X-100, 40 U/ml RNAsin (Promega)) containing LIN28A protein (final concentration: 10 nM) is added to each well. Next, 1 ul of compound in 100% DMSO is transferred from a compound dilution plate in which the compound is serially diluted. Next, 10 ul of a 5× mix of Zcchc11 and RNA substrate (5′-fluorescein labeled pre-let-7 miRNA (Dharmacon)) is added (final concentrations: 0.2 nM and 2 nM, respectively). The plate is placed on a plate shaker for 30 seconds to produce mixing, then incubated for 30 minutes. Next, 10 ul of a 5× mix of UTP and the quenching probe (3′-rhodamine labeled A20, polyadenosine nucleotide, (IDT)) is added (final concentrations: 5 uM and 4 nM, respectively). The plate is immediately placed in a Biotek Cytation 5 plate reader, and the time-dependent decrease in fluorescein fluorescence resulting from annealing of the A20 probe to polyuridine tails is recorded, using the kinetics mode of the reader. Reaction rates are obtained using linear fits to the early portion of progress curves. IC50 values are calculated using a four parameter fit with 100% enzyme activity determined from the DMSO control and 0% activity from control samples lacking UTP.
The LIN28A protein was expressed in and purified from E. coli, strain Rosetta II (Novagen). The entire coding sequence of the human, wild-type protein was cloned into expression vector pMAL (NEB), down-stream from a maltose-binding protein tag. The linker sequence contained a TEV protease cleavage site. The protein was purified from bacterial extracts using an MBP-Trap column (GE Healthcare Life Sciences), followed by tag cleavage and removal of the tag by ion-exchange chromatography. When necessary, contaminating bacterial RNA was removed using the procedure describe by Faehnle C R. et al. (2017) Multi-domain utilization by TUT4 and TUT7 in control of let-7 biogenesis. Nat Struct Mol Biol, 24:658-665.
The Zcchc11 protein was expressed in and purified from HEK293 cells. A truncated protein comprising residues 212-1420 of the human sequence was cloned into expression vector pTT5 (Viva Biotech) down-stream from a maltose-binding protein tag. The linker sequence contained a TEV protease cleavage site, and a FLAG tag was added to the carboxyl terminus of the protein. The protein was purified from cell extracts using an MBP-Trap column (GE Healthcare Life Sciences), followed by tag cleavage and further enrichment of the full length construct using anti-FLAG affinity media (Sigma Aldrich).
“+” represents an IC50 value that is greater than 50 μM; “++” represents an IC50 value that is greater than 10 μM and equal to or less than 50 μM; “+++” represents an IC50 value that is greater than 1 μM and equal to or less than 10 μM; and “++++” represents an IC50 value that is equal to or less than 1 μM.
For `O=C(O)c1cn(-c2cnn(C3CNC3)c2)c2nc(N3CCC[C@@H]3COc3ncccc3F)c(Cl)cc2c1=O` (racemic) [Compound 192, rac-(R)-1-(1-(azetidin-3-yl)-1H-pyrazol-4-yl)-6-chloro-7-(2-(((3-fluoropyridin-2-yl)oxy)methyl)pyrrolidin-1-yl)-4-oxo-1,4-dihydro-1,8-naphthyridine-3-carboxylic acid hydrochloride], the 50% inhibitory concentration (IC50) is ≤ 1000 nM.

On to `O=C(O)c1cn(-c2cnccn2)c2nc(N3CCC[C@@H]3COc3nnccc3Cl)c(Cl)cc2c1=O` (racemic) [Compound 193, rac-(R)-6-chloro-7-(2-(((4-chloro-pyridazin-3-yl)oxy)methyl)pyrrolidin-1-yl)-4-oxo-1-(pyrazin-2-yl)-1,4-dihydro-1,8-naphthyridine-3-carboxylic acid], for which the IC50 was 1000 to 10000 nM.

With `N#Cc1cc2c(=O)c(C(=O)O)cn(-c3cnc(N4CCC4)cn3)c2nc1N1CCC[C@@H]1COc1ncccc1F` (racemic) [Compound 194, rac-(R)-1-(5-(azetidin-1-yl)pyrazin-2-yl)-6-cyano-7-(2-(((3-fluoropyridin-2-yl)oxy)methyl)pyrrolidin-1-yl)-4-oxo-1,4-dihydro-1,8-naphthyridine-3-carboxylic acid], the IC50 is ≤ 1000 nM.

Regarding `CN(C)C(=O)OC[C@H]1CCCN1c1cc2c(cc1Cl)c(=O)c(C(=O)O)cn2-c1ccc(N2CC(N(C)C)C2)nc1` (racemic) [Compound 195, rac-(R)-6-chloro-1-(6-(3-(dimethyl-amino)azetidin-1-yl)pyridin-3-yl)-7-(2-(((dimethylcarbamoyl)oxy)methyl)pyrrolidin-1-yl)-4-oxo-1,4-dihydro-quinoline-3-carboxylic acid formic acid], the IC50 is ≤ 1000 nM.

As for `COc1ccc(Cl)c(OC[C@H]2CC(C3CCC3)CN2c2cc3c(cc2Cl)c(=O)c(C(=O)O)cn3-c2ccc(N3CC(N(C)C)C3)nc2)n1` (mixture of isomers) [Compound 203, rac-6-chloro-7-((2R)-2-(((3-chloro-6-methoxy-pyridin-2-yl)oxy)methyl)-4-cyclobutyl-pyrrolidin-1-yl)-1-(6-(3-(dimethyl-amino)azetidin-1-yl)pyridin-3-yl)-4-oxo-1,4-dihydro-quinoline-3-carboxylic acid], the IC50 was ≤ 1000 nM.

In the case of `CN(C)C1CN(c2ccc(-n3cc(C(=O)O)c(=O)c4cc(Cl)c(N5CC(C6CCC6)C[C@@H]5COc5ncccc5Cl)cc43)cn2)C1` (mixture of isomers) [Compound 205, rac-6-chloro-7-((2R)-2-((3-chloropyridin-2-yl)oxy)methyl)-4-cyclobutyl-pyrrolidin-1-yl)-1-(6-(3-(dimethyl-amino)azetidin-1-yl)pyridin-3-yl)-4-oxo-1,4-dihydro-quinoline-3-carboxylic acido-quinoline-3-carboxylic acid], the IC50 was ≤ 1000 nM.

As for `CC(C)C1C[C@H](COc2ncccc2Cl)N(c2cc3c(cc2Cl)c(=O)c(C(=O)O)cn3-c2ccc(N3CC(N(C)C)C3)nc2)C1` (mixture of isomers) [Compound 223, Rac-6-chloro-7-((2R)-2-(((3-chloropyridin-2-yl)oxy)methyl)-4-isopropyl-pyrrolidin-1-yl)-1-(6-(3-(dimethyl-amino)azetidin-1-yl)pyridin-3-yl)-4-oxo-1,4-dihydro-quinoline-3-carboxylic acid], the IC50 is ≤ 1000 nM.

As to `COc1ccc(Cl)c(OC[C@H]2CC(c3ccc(O)nc3)CN2c2cc3c(cc2F)c(=O)c(C(=O)O)cn3-c2ccc(N3CC(N(C)C)C3)nc2)n1` (mixture of isomers) [Compound 224, Formic acid compound with rac-7-((2R)-2-(((3-chloro-6-methoxy-pyridin-2-yl)oxy)methyl)-4-(6-hydroxy-pyridin-3-yl)pyrrolidin-1-yl)-1-(6-(3-(dimethyl-amino)azetidin-1-yl)pyridin-3-yl)-6-fluoro-4-oxo-1,4-dihydro-quinoline-3-carboxylic acid (1:1)], the IC50 is ≤ 1000 nM.

In the case of `COc1ccc(Cl)c(OC[C@H]2CC(c3ccc(O)nc3)CN2c2cc3c(cc2Cl)c(=O)c(C(=O)O)cn3-c2ccc(N3CC(N(C)C)C3)nc2)n1` (mixture of isomers) [Compound 225, Rac-6-chloro-7-((2R)-2-(((3-chloro-6-methoxy-pyridin-2-yl)oxy)methyl)-4-(6-hydroxy-pyridin-3-yl)pyrrolidin-1-yl)-1-(6-(3-(dimethyl-amino)azetidin-1-yl)pyridin-3-yl)-4-oxo-1,4-dihydro-quinoline-3-carboxylic acid], the IC50 is ≤ 1000 nM.

Regarding `COc1ccc(Cl)c(OC[C@H]2CC(C(C)C)CN2c2cc3c(cc2Cl)c(=O)c(C(=O)O)cn3-c2ccc(N3CC(N(C)C)C3)nc2)n1` (mixture of isomers) [Compound 227, Rac-6-chloro-7-((2R)-2-(((3-chloro-6-(11-oxidaneyl)pyridin-2-yl)oxy)methyl)-4-isopropyl-pyrrolidin-1-yl)-1-(6-(3-(dimethyl-amino)azetidin-1-yl)pyridin-3-yl)-4-oxo-1,4-dihydro-quinoline-3-carboxylic acid], the IC50 is ≤ 1000 nM.

In the case of `COc1ccc(Cl)c(OC[C@H]2C[C@@H]3C[C@@H]3N2c2cc3c(cc2F)c(=O)c(C(=O)O)cn3-c2ccnc(N)c2)n1` (racemic) [Compound 230, Rac-1-(2-aminopyridin-4-yl)-7-((1R,3S,5R)-3-(((3-chloro-6-methoxy-pyridin-2-yl)oxy)methyl)-2-azabicyclo [3.1.0]hexan-2-yl)-6-fluoro-4-oxo-1,4-dihydro-quinoline-3-carboxylic acid], the IC50 is ≤ 1000 nM.

Consider `COc1ccc(Cl)c(OC[C@H]2C[C@@H]3C[C@@H]3N2c2cc3c(cc2Cl)c(=O)c(C(=O)O)cn3-c2ccnc(N)c2)n1` (racemic) [Compound 231, Rac-1-(2-aminopyridin-4-yl)-6-chloro-7-((1R,3S,5R)-3-(((3-chloro-6-methoxy-pyridin-2-yl)oxy)methyl)-2-azabicyclo [3.1.0]hexan-2-yl)-4-oxo-1,4-dihydro-quinoline-3-carboxylic acid], for which the IC50 is ≤ 1000 nM.
